US9586907B2, “Isothiocyanate compounds, pharmaceutical compositions, and uses thereof” (priority 2006, dated 2017)
In brackets after ≈: the same amount, converted by molar mass. Where two headings read alike, the source gives them in different places.

Assays:
M. avium = assay: MIC, M. avium; assay type: cell-based
M. tuberculosis CDC1551 = assay: MIC, M. tuberculosis CDC1551; assay type: cell-based
Protocol: (§1) Next, several of the bifunctional ITC compounds were tested for their ability to inhibit the growth of some clinical isolates of Mycobacteria, the results of which are summarized in Table 3 below.

M. scrofulaceum = assay: MIC, M. scrofulaceum; assay type: cell-based
M. tuberculosis W = assay: MIC, M. tuberculosis W; assay type: cell-based
Protocol: as §1

M. fortuitum = assay: MIC, M. fortuitum; assay type: cell-based
M. cansassi = assay: MIC, M. cansassi; assay type: cell-based
M. tuberculosis W4 = assay: MIC, M. tuberculosis W4; assay type: cell-based
Protocol: as §1

M. bovis BCG = assay: microbe, parasite or virus in culture; assay type: cell-based
M. tuberculosis H37Rv = assay: MIC, M. tuberculosis H37Rv; assay type: cell-based
Protocol: as §1

M. intracellularie = assay: MIC, M. intracellularie; assay type: cell-based
M. tuberculosis P = assay: MIC, M. tuberculosis P; assay type: cell-based
Protocol: as §1

M. tuberculosis AB = assay: MIC, M. tuberculosis AB; assay type: cell-based
Protocol: as §1

M. tuberculosis 210 = assay: MIC, M. tuberculosis 210; assay type: cell-based
Protocol: as §1

[1] = tested on: clinical isolates of bacteria and fungus (including yeasts); assay: General antimicrobial activity, semi-quantitative score on collection of clinical isolates; assay type: cell-based; conditions: for antimicrobial / growth-inhibitory activity (in words): Table 1 screen; on General antimicrobial activity: key: −: indicating no activity; +++++: indicating highest activity
Protocol: The growth inhibitory effect of a number of various ITC compounds were tested on large collection of clinical isolates of bacteria and fungus (including yeasts), in order to establish a systematic structure-activity relationship for the ITC compounds. […] To assess the average activity for an individual ITC compound, the semi-quantitative score was calculated for each compound based on the number of sensitive bacterial strains at concentrations of 100 and 200 μM.

Candida dlabrata 250^mdr = assay: Anti-fungal MIC, Candida dlabrata 250^mdr; conditions: Candida, read-out: Anti-Fungal Activity (MIC)
[2] = tested on: Aspergillus fumigatus Rit 21; assay: Anti-fungal MIC, Aspergillus fumigatus Rit 21; conditions: Aspergillus fumigatus, RIT21, read-out: Anti-Fungal Activity (MIC)
[3] = tested on: Candida albicans 5108^mdr; assay: Anti-fungal MIC, Candida albicans 5108^mdr; conditions: Candida albicans, read-out: Anti-Fungal Activity (MIC)
[4] = tested on: Aspergillus fumigatus Rit 11; assay: Anti-fungal MIC, Aspergillus fumigatus Rit 11; conditions: Aspergillus fumigatus, RIT11, read-out: Anti-Fungal Activity (MIC)
Candida crusei 6258^mdr = assay: microbe, parasite or virus in culture; conditions: read-out: Anti-Fungal Activity (MIC)
[5] = tested on: Aspergillus fumigatus Rit 1; assay: Anti-fungal MIC, Aspergillus fumigatus Rit 1; conditions: Aspergillus fumigatus, RIT1, read-out: Anti-Fungal Activity (MIC)
Candida albicans 90030 = assay: Anti-fungal MIC, Candida albicans 90030; conditions: Candida albicans, 90030, read-out: Anti-Fungal Activity (MIC)
Candida albicans 90028 = assay: Anti-fungal MIC, Candida albicans 90028; conditions: Candida albicans, 90028, read-out: Anti-Fungal Activity (MIC)
[6] = tested on: Candida parapsilosis 22019; assay: Anti-fungal MIC, Candida parapsilosis 22019; conditions: 22019, read-out: Anti-Fungal Activity (MIC)
[7] = tested on: Cryptococcus neoformans CNH99; assay: Anti-fungal MIC, Cryptococcus neoformans CNH99; conditions: Cryptococcus neoformans, CNH99, read-out: Anti-Fungal Activity (MIC)
[8] = tested on: Enterococcus sp., BK11936; assay: MIC, Enterococcus sp., BK11936; conditions: Enterococcus sp., BK11936; Gram +; 24 hours of incubation
[9] = tested on: Bacillus subtilis BK11590; assay: MIC, Bacillus subtilis BK11590; assay type: cell-based; conditions: Gram +, 24 hours of incubation
[10] = tested on: Klebsiella pneumonii BK12260; assay: MIC, Klebsiella pneumonii BK12260; conditions: Klebsiella pneumonii BK12260; Gram −; 24 hours of incubation
[11] = tested on: Enterococcus sp., BK11940; assay: MIC, Enterococcus sp., BK11940; conditions: Enterococcus sp., BK11940; Gram +; 24 hours of incubation
[12] = tested on: Enterobacter cloacii BK12315; assay: MIC, Enterobacter cloacii BK12315; conditions: Enterobacter cloacii BK12315; Gram −; 24 hours of incubation
[13] = tested on: MRSA (Staphylococcus aureus) BK12064; assay: MIC, MRSA BK12064; conditions: MRSA BK12064; Gram +; 24 hours of incubation
[14] = tested on: Klebsiella pneumonii BK12261; assay: MIC, Klebsiella pneumonii BK12261; conditions: Klebsiella pneumonii BK12261; Gram −; 24 hours of incubation
[15] = tested on: Staphylococcus epidermidis BK12798; assay: MIC, Staphylococcus epidermidis BK12798; conditions: Staphylococcus epidermidis BK12798; Gram +; 24 hours of incubation
[16] = tested on: Acinetobacter sp., BK12787; assay: MIC, Acinetobacter sp., BK12787; conditions: Acinetobacter sp., BK12787; Gram −; 24 hours of incubation
[17] = tested on: MRSA (Staphylococcus aureus) BK12060; assay: MIC, MRSA BK12060; conditions: MRSA BK12060; Gram +; 24 hours of incubation
[18] = tested on: Serattia marcescens BK12426; assay: MIC, Serattia marcescens BK12426; conditions: Serattia marcescens BK12426; Gram −; 24 hours of incubation
Escherichia coli K12 = assay: MIC, Escherichia coli K12; conditions: Escherichia coli K12; Gram −; 24 hours of incubation
[19] = tested on: Enterobacter cloacii BK12313; assay: MIC, Enterobacter cloacii BK12313; conditions: Enterobacter cloacii BK12313; Gram −; 24 hours of incubation
Shigella sp., BK 12441 = assay: MIC, Shigella sp., BK 12441; assay type: cell-based; conditions: Gram −, 24 hours of incubation
[20] = tested on: Serattia marcescens BK12421; assay: MIC, Serattia marcescens BK12421; conditions: Serattia marcescens BK12421; Gram −; 24 hours of incubation
[21] = tested on: Pseudomonas aeruginosa BK12348; assay: MIC, Pseudomonas aeruginosa BK12348; conditions: Pseudomonas aeruginosa BK12348; Gram −; 24 hours of incubation
Bacillus cereus 4342 = assay: MIC, Bacillus cereus 4342; conditions: Bacillus cereus 4342; Gram +; 24 hours of incubation
Escherichia coli BK12336 = assay: MIC, Escherichia coli BK12336; conditions: Escherichia coli BK12336; Gram −; 24 hours of incubation
Shigella sp., BK 12440 = assay: MIC, Shigella sp., BK 12440; assay type: cell-based; conditions: Gram −, 24 hours of incubation
[22] = tested on: Staphylococcus epidermidis BK12799; assay: MIC, Staphylococcus epidermidis BK12799; conditions: Staphylococcus epidermidis BK12799; Gram +; 24 hours of incubation
[23] = tested on: Pseudomonas aeruginosa BK12347; assay: MIC, Pseudomonas aeruginosa BK12347; conditions: Pseudomonas aeruginosa BK12347; Gram −; 24 hours of incubation
[24] = tested on: Acinetobacter sp., BK12786; assay: MIC, Acinetobacter sp., BK12786; conditions: Acinetobacter sp., BK12786; Gram −; 24 hours of incubation
[25] = Mycobacterium tuberculosis, read-out: MIC

Compound: S=C=NCCCCCCN=C=S [Compound 40, S═C═N—(CH2)6—N═C═S]
- MIC (M. avium; M. avium): 32 µg/mL (≈ 160 µM)
- MIC (M. tuberculosis CDC1551): 4 µg/mL (≈ 20 µM)
- MIC (M. scrofulaceum; M. scrofulaceum): 32 µg/mL (≈ 160 µM)
- MIC (M. tuberculosis W): 0.5 µg/mL (≈ 2.5 µM)
- MIC (M. fortuitum; M. fortuitum): 16 µg/mL (≈ 79.9 µM)
- MIC (M. cansassi; M. cansassi): 8 µg/mL (≈ 39.9 µM)
- MIC (M. tuberculosis W4): 2 µg/mL (≈ 9.98 µM)
- MIC (M. bovis BCG): 2 µg/mL (≈ 9.98 µM)
- MIC (M. tuberculosis H37Rv): 2 µg/mL (≈ 9.98 µM)
- MIC (M. intracellularie; M. intracellularie): 32 µg/mL (≈ 160 µM)
- MIC (M. tuberculosis P): 2 µg/mL (≈ 9.98 µM)
- MIC (M. tuberculosis AB): 4 µg/mL (≈ 20 µM)
- MIC (M. tuberculosis 210): 2 µg/mL (≈ 9.98 µM)

Compound: O=C(O)c1cc(N=C=S)ccc1-c1c2ccc(O)cc2cc2cc(O)ccc12 [Compound 14, reference compound]
- antimicrobial / growth-inhibitory activity (in words) [1]: poor growth-inhibitory activity

Compound: CCCCN=C=S [Compound 7, CH3CH2CH2CH2—N═C═S, reference compound]
- antimicrobial / growth-inhibitory activity (in words) [1]: very little activity

Compound: C=CCN=C=S [Compound 22, CH2═CH2CH2—N═C═S, reference compound]
- antimicrobial / growth-inhibitory activity (in words) [1]: very little activity

Compound: OC(Cn1cncn1)(Cn1cncn1)c1ccc(F)cc1F [Fluc, Fluconazol, reference compound]
- MIC (Candida dlabrata 250^mdr): > 64 µg/mL
- MIC [2]: > 64 µg/mL
- MIC [3]: 32 µg/mL (≈ 104 µM)
- MIC [4]: > 64 µg/mL
- MIC (Candida crusei 6258^mdr): 32 µg/mL (≈ 104 µM)
- MIC [5]: > 64 µg/mL
- MIC (Candida albicans 90030): 4 µg/mL (≈ 13.1 µM)
- MIC (Candida albicans 90028): 0.25 µg/mL (≈ 0.816 µM)
- MIC [6]: 2 µg/mL (≈ 6.53 µM)
- MIC [7]: 4 µg/mL (≈ 13.1 µM)

Compound: CN=C=S [Compound 8, CH3—N═C═S, reference compound]
- antimicrobial / growth-inhibitory activity (in words) [1]: very little activity

Compound: CO[C@H]1/C=C/O[C@@]2(C)Oc3c(C)c(O)c4c(O)c(c(/C=N/N5CCN(C)CC5)c(O)c4c3C2=O)NC(=O)/C(C)=C\C=C\[C@H](C)[C@H](O)[C@@H](C)[C@@H](O)[C@@H](C)[C@H](OC(C)=O)[C@@H]1C [Rif, Rifampicin, reference compound]
- MIC (M. avium; Mycobacterium avium): 0.5 µg/mL (≈ 0.608 µM)
- MIC (M. tuberculosis CDC1551; [25]): 0.5 µg/mL (≈ 0.608 µM)
- MIC (M. scrofulaceum; Mycobacterium scrofulaceum): 0.5 µg/mL (≈ 0.608 µM)
- MIC (M. tuberculosis W; [25]): > 4 µg/mL
- MIC (M. fortuitum; Mycolicibacterium fortuitum): > 4 µg/mL
- MIC (M. cansassi): 0.5 µg/mL (≈ 0.608 µM)
- MIC (M. tuberculosis W4; [25]): 0.5 µg/mL (≈ 0.608 µM)
- MIC (M. bovis BCG; Mycobacterium tuberculosis variant bovis BCG, BCG): 0.5 µg/mL (≈ 0.608 µM)
- MIC (M. tuberculosis H37Rv; [25]): 0.5 µg/mL (≈ 0.608 µM)
- MIC (M. intracellularie): 0.5 µg/mL (≈ 0.608 µM)
- MIC (M. tuberculosis P; [25]): > 4 µg/mL
- MIC (M. tuberculosis AB; [25]): 0.5 µg/mL (≈ 0.608 µM)
- MIC (M. tuberculosis 210; [25]): 0.5 µg/mL (≈ 0.608 µM)

Compound: OCCCCCCCN=C=S [Compound 44, HO—(CH2)7—N═C═S]
- MIC [8]: 32 µg/mL (≈ 185 µM)
- MIC [9]: 4 µg/mL (≈ 23.1 µM)
- MIC [10]: >64 µg/mL
- MIC [11]: 32 µg/mL (≈ 185 µM)
- MIC [12]: >64 µg/mL
- MIC [13]: 16 µg/mL (≈ 92.3 µM)
- MIC [14]: >64 µg/mL
- MIC [15]: 8 µg/mL (≈ 46.2 µM)
- MIC [16]: 64 µg/mL (≈ 369 µM)
- MIC [17]: 8 µg/mL (≈ 46.2 µM)
- MIC [18]: >64 µg/mL
- MIC (Escherichia coli K12): >64 µg/mL
- MIC [19]: >64 µg/mL
- MIC (Shigella sp., BK 12441): 64 µg/mL (≈ 369 µM)
- MIC [20]: >64 µg/mL
- MIC [21]: >64 µg/mL
- MIC (Bacillus cereus 4342): 8 µg/mL (≈ 46.2 µM)
- MIC (Escherichia coli BK12336): >64 µg/mL
- MIC (Shigella sp., BK 12440): 64 µg/mL (≈ 369 µM)
- MIC [22]: 8 µg/mL (≈ 46.2 µM)
- MIC [23]: >64 µg/mL
- MIC [24]: 64 µg/mL (≈ 369 µM)

Compound: O=C=NCc1ccccc1 [Compound 23, reference compound]
- antimicrobial / growth-inhibitory activity (in words) [1]: Neither of the chemically related derivatives—isocyanate (Compound 23) or thiocyanate (Compound 25)—displayed any activity
- General antimicrobial activity ([1]; semi-quantitative score from number of sensitive bacterial strains at 100 and 200 μM, deduced from number of sensitive bacterial species and average MIC): −

Compound: S=C=NCC12CC3CC(CC(C3)C1)C2 [Compound 35]
- antimicrobial / growth-inhibitory activity (in words) [1]: poor growth-inhibitory activity
